{"source": "ChEMBL document CHEMBL5393453", "about": "“Compositions and methods of using the same for treatment of neurodegenerative and mitochondrial disease” (2021)", "key": {"[1]": {"assay": "Therapy index in human HeLa Mito-Keima/YFP-Parkin cells treated with FCCP/oligomycin assessed as mitophagy safety margin by DAPI staining analysis", "assay_type": "toxicity, cell-based", "conditions": "read-out: TI"}, "[2]": {"assay": "Cytotoxicity against human HeLa cells expressing YFP parkin assessed as highest safety dose by DAPI staining analysis", "assay_type": "toxicity, cell-based", "conditions": "read-out: Activity"}, "[3]": {"system": "HeLa", "assay": "Induction of mitophagy in human HeLa Mito-Keima/YFP-Parkin cells treated with FCCP/oligomycin measured by FACS analysis", "assay_type": "functional, cell-based"}, "[4]": {"system": "Primary hippocampal neuron", "assay": "Protection against PFFs induced alpha-synuclein fibril formation in C57BL/6 mouse derived primary hippocampal neurons assessed as reduction in phosphorylated S129 alpha-synuclein level at 1.56 to 12.5 uM measured after 6 days", "assay_type": "functional, cell-based", "conditions": "dose 1.56-12.5 µM, time 6.0 day"}, "[5]": {"system": "HeLa", "assay": "Induction of mitophagy in human HeLa Mito-Keima/YFP-Parkin cells treated with FCCP/oligomycin measured by FACS analysis relative to DMSO", "assay_type": "functional"}, "[6]": {"assay": "Cytotoxicity against human HeLa cells expressing YFP parkin treated with FCCP/ oligomycin assessed as highest safety dose by DAPI staining analysis", "assay_type": "toxicity, cell-based", "conditions": "read-out: Activity"}, "[7]": {"system": "Primary hippocampal neuron", "assay": "Protection against PFFs induced alpha-synuclein fibril formation in C57BL/6 mouse derived primary hippocampal neurons assessed as reduction in phosphorylated S129 alpha-synuclein monomer level at 0.1 to 25 uM measured after 6 days", "assay_type": "functional, cell-based", "conditions": "dose 0.1-25 µM, time 6.0 day"}, "[8]": {"assay": "Cmax in C57BL/6 mouse at 100 mg/kg, po administered as single dose by mass spectrometry", "assay_type": "ADME, organism-based", "parameters": "dose 100 mg/kg, route po", "conditions": "in vivo"}, "[9]": {"assay": "AUClast in C57BL/6 mouse at 50 mg/kg, po administered as single dose by mass spectrometry", "assay_type": "ADME, organism-based", "parameters": "dose 50 mg/kg, route po", "conditions": "in vivo"}, "[10]": {"system": "Mus musculus", "assay": "Protection against kidney fibrosis in cisplatin-challenged C57BL/6 mouse assessed as rescue of KIM-1 at 6.25 to 50 mg/kg, po administered once a day for 3 days", "assay_type": "functional, organism-based", "conditions": "dose 6.25-50 mg/kg, time 3.0 day"}, "[11]": {"system": "Mus musculus", "assay": "Protection against PFFs induced alpha-synuclein fibril formation in C57BL/6 mouse assessed as reduction in phosphorylated S129 alpha-synuclein monomer level at 6.25 to 50 mg/kg, po administered twice daily", "assay_type": "functional, organism-based", "conditions": "dose 6.25-50 mg/kg"}, "[12]": {"assay": "Cmax in C57BL/6 mouse at 50 mg/kg, po administered as single dose by mass spectrometry", "assay_type": "ADME, organism-based", "parameters": "dose 50 mg/kg, route po", "conditions": "in vivo"}, "[13]": {"assay": "Cmax in C57BL/6 mouse at 25 mg/kg, po administered as single dose by mass spectrometry", "assay_type": "ADME, organism-based", "parameters": "dose 25 mg/kg, route po", "conditions": "in vivo"}, "[14]": {"system": "Mus musculus", "assay": "Protection against kidney fibrosis in cisplatin-challenged C57BL/6 mouse assessed as reduction in Gdf15 expression at 6.25 to 50 mg/kg, po administered once a day for 3 days", "assay_type": "functional, organism-based", "conditions": "dose 6.25-50 mg/kg, time 3.0 day"}, "[15]": {"system": "HeLa", "assay": "Induction of mitophagy in human HeLa YFP-Parkin cells treated with FCCP/oligomycin assessed as cells with parkin recruited to mitochondria at 60 mins by FACS analysis", "assay_type": "functional, cell-based", "conditions": "1 h"}, "[16]": {"assay": "AUClast in C57BL/6 mouse at 100 mg/kg, po administered as single dose by mass spectrometry", "assay_type": "ADME, organism-based", "parameters": "dose 100 mg/kg, route po", "conditions": "in vivo"}, "[17]": {"system": "Mus musculus", "assay": "Protection against kidney fibrosis in cisplatin-challenged C57BL/6 mouse assessed as reduction in Tnfrsf12a expression at 6.25 to 50 mg/kg, po administered once a day for 3 days", "assay_type": "functional, organism-based", "conditions": "dose 6.25-50 mg/kg, time 3.0 day"}, "[18]": {"system": "Primary hippocampal neuron", "assay": "Protection against PFFs induced alpha-synuclein fibril formation in C57BL/6 mouse derived primary hippocampal neurons assessed as reduction in phosphorylated S129 alpha-synuclein level at 0.1 to 25 uM measured after 6 days", "assay_type": "functional, cell-based", "conditions": "dose 0.1-25 µM, time 6.0 day"}, "[19]": {"assay": "AUClast in C57BL/6 mouse at 25 mg/kg, po administered as single dose by mass spectrometry", "assay_type": "ADME, organism-based", "parameters": "dose 25 mg/kg, route po", "conditions": "in vivo"}, "[20]": {"system": "Mus musculus", "assay": "Protection against PFFs induced alpha-synuclein fibril formation in C57BL/6 mouse assessed as reduction in phosphorylated S129 alpha-synuclein level at 6.25 to 50 mg/kg, po administered twice daily", "assay_type": "functional, organism-based", "conditions": "dose 6.25-50 mg/kg"}, "[21]": {"system": "Primary hippocampal neuron", "assay": "Protection against PFFs induced alpha-synuclein fibril formation in C57BL/6 mouse derived primary hippocampal neurons assessed as reduction in phosphorylated S129 alpha-synuclein (250-12) level at 0.1 to 25 uM measured after 6 days", "assay_type": "functional, cell-based", "conditions": "dose 0.1-25 µM, time 6.0 day"}, "[22]": {"system": "Mus musculus", "assay": "Protection against PFFs induced alpha-synuclein fibril formation in C57BL/6 mouse assessed as reduction in phosphorylated S129 alpha-synuclein (250-12) level at 6.25 to 50 mg/kg, po administered twice daily", "assay_type": "functional, organism-based", "conditions": "dose 6.25-50 mg/kg"}, "[23]": {"assay": "Cmax in C57BL/6 mouse at 10 mg/kg, po administered as single dose by mass spectrometry", "assay_type": "ADME, organism-based", "parameters": "dose 10 mg/kg, route po", "conditions": "in vivo"}, "[24]": {"assay": "AUClast in C57BL/6 mouse at 10 mg/kg, po administered as single dose by mass spectrometry", "assay_type": "ADME, organism-based", "parameters": "dose 10 mg/kg, route po", "conditions": "in vivo"}, "[25]": {"system": "HeLa", "assay": "Induction of mitophagy in human HeLa Mito-Keima cells treated with FCCP/oligomycin measured by FACS analysis", "assay_type": "functional, cell-based"}}, "note": "The source made the active and inactive calls. The rule behind the calls is not given here."}
{"molecule": "FC(F)(F)c1cc2c(N[C@@H]3c4ccccc4CC[C@@H]3N3CCOCC3)ncnc2[nH]1", "values": [{"measurement": "selectivity ratio", "setting": "[1]", "result": "< 10"}, {"measurement": "MNTC", "setting": "[2]", "result": 16.7, "unit": "µM"}]}
{"molecule": "COC1CN([C@@H]2CCc3ccccc3[C@H]2Nc2ncnc3[nH]c(C(F)(F)F)cc23)C1", "values": [{"measurement": "EC50", "setting": "[3]", "result": 28.8, "unit": "µM"}, {"measurement": "MNTC", "setting": "[2]", "result": 25, "unit": "µM"}]}
{"molecule": "FC(F)(F)c1cc2c(N[C@H]3c4ccccc4CC[C@@H]3N3CCOCC3)ncnc2[nH]1", "note": "(single isomer, unassigned)", "values": [{"measurement": "selectivity ratio", "setting": "[1]", "result": "> 30"}, {"measurement": "Activity", "setting": "[4]", "result": "Active"}, {"measurement": "fold change (FC)", "setting": "[5]", "result": 9.78}]}
{"molecule": "c1ccc2c(c1)CC[C@H](N1C[C@H]3COC[C@H]3C1)[C@H]2Nc1ncnc2[nH]c(C3CC3)cc12", "values": [{"measurement": "MNTC", "setting": "[6]", "result": 0.9, "unit": "µM"}, {"measurement": "MNTC", "setting": "[2]", "result": 25, "unit": "µM"}]}
{"molecule": "C[C@@H]1CN([C@@H]2COc3ccccc3[C@H]2Nc2ncnc3[nH]c(C4CC4)cc23)C[C@H](C)O1", "values": [{"measurement": "MNTC", "setting": "[6]", "result": 1.2, "unit": "µM"}, {"measurement": "MNTC", "setting": "[2]", "result": 25, "unit": "µM"}]}
{"molecule": "C[C@H]1CN([C@H]2COc3ccccc3[C@@H]2Nc2ncnc3[nH]c(C4CC4)cc23)CCO1", "values": [{"measurement": "MNTC", "setting": "[6]", "result": 15.1, "unit": "µM"}, {"measurement": "MNTC", "setting": "[2]", "result": 25, "unit": "µM"}]}
{"molecule": "FC(F)(F)c1cc2c(N[C@@H]3c4ccccc4CC[C@H]3N3CCOCC3)ncnc2[nH]1", "note": "(single isomer, unassigned)", "values": [{"measurement": "fold change (FC)", "setting": "[5]", "result": 7.78}]}
{"molecule": "c1ccc2c(c1)OC[C@H](N1CCOCC1)[C@H]2Nc1ncnc2[nH]c(C3CC3)cc12", "values": [{"measurement": "Activity", "setting": "[7]", "result": "Active"}, {"measurement": "Cmax", "setting": "[8]", "result": 19.4, "unit": "µM"}, {"measurement": "AUC(0-t)", "setting": "[9]", "result": 17.3, "unit": "µM·h"}, {"measurement": "Activity", "setting": "[10]", "result": "Active"}, {"measurement": "MNTC", "setting": "[6]", "result": 25, "unit": "µM"}, {"measurement": "Activity", "setting": "[11]", "result": "Active"}, {"measurement": "Cmax", "setting": "[12]", "result": 9.21, "unit": "µM"}, {"measurement": "Cmax", "setting": "[13]", "result": 1.15, "unit": "µM"}, {"measurement": "Activity", "setting": "[14]", "result": "Active"}, {"measurement": "EC50", "setting": "[15]", "result": 1.15, "unit": "µM"}, {"measurement": "AUC(0-t)", "setting": "[16]", "result": 85.6, "unit": "µM·h"}, {"measurement": "Activity", "setting": "[17]", "result": "Active"}, {"measurement": "Activity", "setting": "[18]", "result": "Active"}, {"measurement": "AUC(0-t)", "setting": "[19]", "result": 1.91, "unit": "µM·h"}, {"measurement": "Activity", "setting": "[20]", "result": "Active"}, {"measurement": "Activity", "setting": "[21]", "result": "Active"}, {"measurement": "Activity", "setting": "[22]", "result": "Active"}, {"measurement": "Cmax", "setting": "[23]", "result": 0.35, "unit": "µM"}, {"measurement": "AUC(0-t)", "setting": "[24]", "result": 0.51, "unit": "µM·h"}, {"measurement": "EC50", "setting": "[25]", "result": 0.153, "unit": "µM"}, {"measurement": "MNTC", "setting": "[2]", "result": 25, "unit": "µM"}]}
{"molecule": "c1ccc2c(c1)CC[C@H](C1CCOCC1)[C@H]2Nc1ncnc2[nH]c(C3CC3)cc12", "note": "(single isomer, unassigned)", "values": [{"measurement": "MNTC", "setting": "[6]", "result": 2.1, "unit": "µM"}, {"measurement": "MNTC", "setting": "[2]", "result": 25, "unit": "µM"}]}
{"molecule": "FC(F)(F)c1cc2c(N[C@H]3c4ccccc4OC[C@@H]3C3CCOCC3)ncnc2[nH]1", "note": "(single isomer, unassigned)", "values": [{"measurement": "MNTC", "setting": "[6]", "result": 25, "unit": "µM"}, {"measurement": "MNTC", "setting": "[2]", "result": 25, "unit": "µM"}]}
{"molecule": "Fc1ccc2c(c1)OC[C@H](N1C[C@@H]3COC[C@H]3C1)[C@H]2Nc1ncnc2[nH]c(C3CC3)cc12", "note": "(single isomer, unassigned)", "values": [{"measurement": "MNTC", "setting": "[6]", "result": 13.9, "unit": "µM"}, {"measurement": "MNTC", "setting": "[2]", "result": 25, "unit": "µM"}]}
{"molecule": "Fc1ccc2c(c1)CC[C@H](N1C[C@H]3COC[C@@H]3C1)[C@H]2Nc1ncnc2[nH]c(C3CC3)cc12", "values": [{"measurement": "MNTC", "setting": "[6]", "result": 11.7, "unit": "µM"}, {"measurement": "MNTC", "setting": "[2]", "result": 25, "unit": "µM"}]}
{"molecule": "COC[C@H]1CCN([C@H]2COc3ccccc3[C@@H]2Nc2ncnc3[nH]c(C4CC4)cc23)C1", "values": [{"measurement": "MNTC", "setting": "[6]", "result": 3.6, "unit": "µM"}, {"measurement": "MNTC", "setting": "[2]", "result": 25, "unit": "µM"}]}
